Data from ChEMBL document CHEMBL4622958, “Tetrazoles as anticancer agents: A review on synthetic strategies, mechanism of action and SAR studies” (Bioorg Med Chem, 2020).
Converted amounts (≈) assume the structure as drawn. Where a name gives a salt, the structure may show the parent alone.

Key:
U2OS [1] = experiment: Cytotoxicity against human U2OS cells assessed as reduction in cell viability at 20 uM by CellTiter 96 non-radioactive cell proliferation assay relative to control; format: functional
U2OS [2] = experiment: Cytotoxicity against human U2OS cells assessed as reduction in cell viability by CellTiter 96 non-radioactive cell proliferation assay; format: functional, cell-based
HUVEC = experiment: Cytotoxicity against HUVEC assessed as reduction in cell viability; format: cell-based; details: Homo sapiens
CCRF-CEM [3] = experiment: Cytotoxicity against human CCRF-CEM cells assessed as reduction in cell viability at 10 uM after 24 hrs by MTT assay relative to control; format: functional; details: values are per cent of control
CCRF-CEM [4] = experiment: Cytotoxicity against human CCRF-CEM cells assessed as reduction in cell viability at 25 uM after 24 hrs by MTT assay relative to control; format: functional; details: values are per cent of control
CCRF-CEM [5] = experiment: Cytotoxicity against human CCRF-CEM cells assessed as reduction in cell viability at 50 uM after 24 hrs by MTT assay relative to control; format: functional; details: values are per cent of control
CCRF-CEM [6] = experiment: Cytotoxicity against human CCRF-CEM cells assessed as reduction in cell viability at 10 uM after 48 hrs by MTT assay relative to control; format: functional; details: values are per cent of control
CCRF-CEM [7] = experiment: Cytotoxicity against human CCRF-CEM cells assessed as reduction in cell viability at 25 uM after 48 hrs by MTT assay relative to control; format: functional; details: values are per cent of control
CCRF-CEM [8] = experiment: Cytotoxicity against human CCRF-CEM cells assessed as reduction in cell viability at 50 uM after 48 hrs by MTT assay relative to control; format: functional; details: values are per cent of control
MCF7 [9] = experiment: Cytotoxicity against human MCF7 cells assessed as reduction in cell viability after 48 hrs by MTT assay; format: functional, cell-based; details: MCF7, 48 h
HOP-62 = experiment: Growth inhibition of human HOP62 cells after 48 hrs by MTT assay; format: functional; details: HOP-62, 48 h
HeLa = experiment: Cytotoxicity against human HeLa cells assessed as reduction in cell viability after 48 hrs by MTT assay; format: functional, cell-based
HT-29 = experiment: Anticancer activity against human HT-29 cells after 48 hrs by MTT assay; format: functional, cell-based; details: HT-29, 48 h
HepG2 [10] = experiment: Anticancer activity against human HepG2 cells after 48 hrs by MTT assay; format: functional, cell-based; details: HepG2, 48 h
MCF7 [11] = experiment: Anticancer activity against human MCF7 cells after 48 hrs by MTT assay; format: functional, cell-based; details: MCF7, 48 h
A549 = experiment: Anticancer activity against human A549 cells after 48 hrs by MTT assay; format: functional, cell-based; details: A549, 48 h
[12] = Half life in human liver microsome; format: ADME; details: liver microsomes
MCF7 [13] = experiment: Growth inhibition of human MCF7 cells after 48 hrs by MTT assay; format: functional; details: MCF7, 48 h
HepG2 [14] = experiment: Anticancer activity against human HepG2 cells after 48 hrs by SRB assay; details: HepG2, 48 h

For `CC(C)(C)n1nnc([C@H](CCCNC(=N)CCl)NC(=O)c2ccc(-c3ccccc3)cc2)n1`, the Activity (U2OS [1]) was 0% and the EC50 (U2OS [2]) was 10 µM.
In the case of `CCC(C)n1ncn(-c2ccc(N3CCN(c4ccc(OC[C@@H]5CO[C@@](Cn6nnnc6-c6ccccc6)(c6ccc(Cl)cc6Cl)O5)cc4)CC3)cc2)c1=O` (some centres undefined), the IC50 (HUVEC) is reported as 0.119 µM.
Work on `CCC(C)n1ncn(-c2ccc(N3CCN(c4ccc(OC[C@@H]5CO[C@@](Cn6ncnn6)(c6ccc(Cl)cc6Cl)O5)cc4)CC3)cc2)c1=O` (some centres undefined) yielded an IC50 (HUVEC) of 0.124 µM.
`CCC(C)n1ncn(-c2ccc(N3CCN(c4ccc(OC[C@@H]5CO[C@@](Cn6nnnc6C)(c6ccc(Cl)cc6Cl)O5)cc4)CC3)cc2)c1=O` (some centres undefined) gave an IC50 (HUVEC) of 0.101 µM.
In the case of `Clc1ccccc1-c1nnnn1CCCn1cnc2c(Br)c(Br)c(Br)c(Br)c21`, the viability, % of control at 10 µM (CCRF-CEM [3]) is reported as 65%, the viability, % of control at 25 µM (CCRF-CEM [4]) is reported as 1% and the viability, % of control at 50 µM (CCRF-CEM [5]) is reported as 2%. It also gave a viability, % of control at 10 µM (CCRF-CEM [6]) of 51%, a viability, % of control at 25 µM (CCRF-CEM [7]) of 1% and a viability, % of control at 50 µM (CCRF-CEM [8]) of 0%.
With `CC(C)(C)n1nnc([C@H](CCCNC(=N)CBr)NC(=O)c2ccc(-c3ccccc3)cc2)n1` the Activity (U2OS [1]) was 50% and the EC50 (U2OS [2]) was 45 µM.
`Brc1c(Br)c(Br)c2c(ncn2CCCn2nnnc2-c2ccccc2)c1Br` showed a viability, % of control at 10 µM (CCRF-CEM [3]) of 67%, a viability, % of control at 25 µM (CCRF-CEM [4]) of 4% and a viability, % of control at 50 µM (CCRF-CEM [5]) of 2%. It also gave a viability, % of control at 10 µM (CCRF-CEM [6]) of 57%, a viability, % of control at 25 µM (CCRF-CEM [7]) of 0% and a viability, % of control at 50 µM (CCRF-CEM [8]) of 0%.
With `CCOC(=O)Cn1nnnc1/C(=C/c1ccc(F)cc1)NC(=O)c1ccccc1` the IC50 (MCF7 [9]) was 47.9 µM.
Work on `O=[N+]([O-])c1ccc(-c2nnnn2-c2ccc(-c3nc4ccccc4o3)cc2)cc1` yielded a GI50 (HOP-62) of 1.22 µM.
Compound `O=[N+]([O-])c1cccc(-c2nnnn2-c2ccc(-c3nc4ccccc4o3)cc2)c1` has a GI50 (HOP-62) of 2.9 µM.
With `Clc1ccccc1-c1nnn(CCCn2cnc3c(Br)c(Br)c(Br)c(Br)c32)n1` the viability, % of control at 10 µM (CCRF-CEM [3]) was 102%, the viability, % of control at 25 µM (CCRF-CEM [4]) was 96% and the viability, % of control at 50 µM (CCRF-CEM [5]) was 68%. It also gave a viability, % of control at 10 µM (CCRF-CEM [6]) of 104%, a viability, % of control at 25 µM (CCRF-CEM [7]) of 89% and a viability, % of control at 50 µM (CCRF-CEM [8]) of 42%.
`CCOC(=O)Cn1nnnc1/C(=C/c1ccc(OC)cc1)NC(=O)c1ccccc1` gave an IC50 (MCF7 [9]) of 44.6 µM.
With `Fc1ccc(/C=C/c2nc3ccc(Br)cc3c3nnnn23)cc1` the IC50 (MCF7 [9]) was 21 µM and the IC50 (HeLa) was 22.4 µM.
Compound `Fc1ccc(-c2ccc3nc(/C=C/c4ccccc4)n4nnnc4c3c2)cc1` has an IC50 (MCF7 [9]) of over 200 µM and an IC50 (HeLa) of over 200 µM.
With `Brc1ccc2nc(/C=C/c3ccccc3)n3nnnc3c2c1` the IC50 (MCF7 [9]) was 9.6 µM and the IC50 (HeLa) was 7.3 µM.
`COc1cc(-c2nnnn2-c2ccc(-c3nc4ccccc4o3)cc2)cc(OC)c1OC` gave a GI50 (HOP-62) of 1.67 µM.
`O=C(NC(=O)Nc1ccc(F)cc1F)Nc1ccc(Oc2ccnc(-n3cnnn3)c2)c(F)c1` gave an IC50 (HT-29) of 5.97 µM, an IC50 (HepG2 [10]) of 5.72 µM and an IC50 (MCF7 [11]) of 9.88 µM. It also gave an IC50 (A549) of 10.6 µM and a half-life [12] of 9.17 h.
`O=C(NC(=O)Nc1ccc(Oc2ccnc(-n3cnnn3)c2)c(F)c1)Nc1cccc(F)c1` gave an IC50 (HT-29) of 20.6 µM, an IC50 (HepG2 [10]) of 0.55 µM and an IC50 (MCF7 [11]) of 7.76 µM. It also gave an IC50 (A549) of 6.25 µM and a half-life [12] of 2.28 h.
`Brc1c(Br)c(Br)c2c(ncn2CCCn2nnc(-c3ccccc3)n2)c1Br` showed a viability, % of control at 10 µM (CCRF-CEM [3]) of 106%, a viability, % of control at 25 µM (CCRF-CEM [4]) of 73% and a viability, % of control at 50 µM (CCRF-CEM [5]) of 4%. It also gave a viability, % of control at 10 µM (CCRF-CEM [6]) of 105%, a viability, % of control at 25 µM (CCRF-CEM [7]) of 64% and a viability, % of control at 50 µM (CCRF-CEM [8]) of 0%.
For `CCOC(=O)Cn1nnnc1/C(=C/c1ccc(Cl)cc1)NC(=O)c1ccccc1`, the IC50 (MCF7 [9]) was 40.2 µM.
`Fc1ccc(C#Cc2ccc3nc(/C=C/c4ccccc4)n4nnnc4c3c2)cc1` gave an IC50 (MCF7 [9]) of over 200 µM and an IC50 (HeLa) of over 200 µM.
`N[C@@H](Cc1ccc(N(CCCl)CCCl)cc1)C(=O)O` gave an IC50 (MCF7 [9]) of 61 µM and an IC50 (HeLa) of 88.9 µM.
Compound `COc1cccc2c1C(=O)c1c(O)c3c(c(O)c1C2=O)C[C@@](O)(C(=O)CO)C[C@@H]3O[C@H]1C[C@H](N)[C@H](O)[C@H](C)O1` [DOXORUBICIN HYDROCHLORIDE] has a GI50 (MCF7 [13]) of 170 µM and a GI50 (HOP-62) of 0.14 µM.
For `COc1cccc2c1C(=O)c1c(O)c3c(c(O)c1C2=O)C[C@@](O)(C(=O)CO)C[C@@H]3O[C@H]1C[C@H](N)[C@H](O)[C@H](C)O1` [DOXORUBICIN], the IC50 (HepG2 [14]) was 4000 µg/mL (≈ 7.36 mM).
With `CNC(=O)c1cc(Oc2ccc(NC(=O)Nc3ccc(Cl)c(C(F)(F)F)c3)cc2)ccn1` [SORAFENIB] the IC50 (HT-29) was 10.1 µM, the IC50 (HepG2 [10]) was 9.64 µM and the IC50 (MCF7 [11]) was 10.9 µM. For the same compound, the IC50 (A549) was 11.2 µM.
